Where “and” joins values, the source holds several entries; their conditions need not be identical. Equal entries are not always repeated.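 A five-concentration, 48-hour dose response in 96-well plates underlies each endpoint, interpolated linearly between surrounding concentrations. GI50 = concentration required for 50% inhibition of growth. Definition used: TGI = concentration required for complete inhibition of growth.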

What all share (assay): growth of human tumour cells (NCI), 48 h
Assay [1] deals with KM20L2 colon.
Assay [2] deals with DLD-1 colon.
The subject of assay [3] is LXFL 529 NSCLC.
The subject of assay [4] is XF 498 CNS.
Assay [5] concerns DMS 114 small cell lung.
In assay [6] the test system is M19-MEL melanoma.
For assay [7], the system named is SNB-78 CNS.
Assay [8] relates to MDA-N.
The subject of assay [9] is RXF-631 renal.

Turning to `CC1OC(n2cc(I)c(=O)[nH]c2=O)C=CC1=O` (stereo not drawn), the TGI in assay [1] is 31 µM; in assay [2], 26 µM; in assay [3], 22.7 µM; in assay [4] it was 33.3 µM; in assay [5], 31 µM; in assay [6], 30.6 µM. In assay [7], this compound gave a TGI of 31.9 µM.
As to `C[C@]12CC/C(=N\OC(=O)Nc3ccccc3)C=C1CC[C@@H]1C2CC[C@@]2(C)C1CC[C@@H]2OC(=O)Nc1ccccc1` (stereo partly drawn), the TGI in assay [1] is greater than 100 µM; in [3], greater than 100 µM; in assay [4] it was 27.3 µM; in assay [5] it was greater than 100 µM; in assay [6], greater than 100 µM; in [7] it was greater than 100 µM.
Regarding `CS(=O)(=O)N(CC(=O)O)Cc1ccccc1`, the TGI in [8] was greater than 100 µM.
Regarding `CN1CCN(CCCN2c3ccccc3Sc3ccc(C(F)(F)F)cc32)CC1`, the TGI in assay [8] was 12.5 µM and 12.3 µM; in assay [1], 5.22 µM; in assay [2] it was 26.9 µM; in [3], 23 µM; in assay [5], 23.4 µM; in [6], 3.75 µM. This compound also showed a TGI in [7] of 32.1 µM.
Consider `N#CC(C(=O)C(=O)Nc1ccc(Cl)c(Cl)c1)c1ccc(Cl)cc1` (stereo not drawn), for which the TGI was greater than 100 µM in assay [1]; greater than 100 µM in assay [2]; greater than 100 µM in [3]; greater than 100 µM in assay [4]; 45.7 µM in [5]; greater than 100 µM in assay [7].
As for `COc1ccc(C(=O)C(CC2C(=O)CC(C)(C)C(C(=O)C(=O)Nc3c(C)cccc3C)C2=O)c2ccc(OC)cc2)cc1` (stereo not drawn), the TGI in assay [8] was greater than 100 µM.
On to `CCCCCCCCCCCCCC(=O)OC1C(CO)OC(=O)C1O` (stereo not drawn), for which the TGI in [1], in assay [2], in assay [3], in assay [4], in assay [5] and in assay [6] was greater than 100 µM each time. Moreover, the TGI in [7] is greater than 100 µM.
For `COc1cccc(N2C(=O)[C@H]3[C@H]4CC(C(C)(C)C)CC[C@H]4c4c([nH]c5ccccc45)[C@H]3C2=O)c1` (stereo partly drawn), the TGI was determined as 33.2 µM in assay [9]; 65.1 µM in assay [2]; 42.3 µM in assay [3]; 38 µM in assay [5]; 44.1 µM in assay [6]; 35.3 µM in assay [7].
With `CSC1CC2C(CC1(C)SC)C2(C)C` (stereo not drawn), the TGI is greater than 100 µM in [2]; greater than 100 µM in assay [3]; 50.8 µM in assay [4]; greater than 100 µM in [6]; greater than 100 µM in [7].
Take `O=C(CC(=O)c1cccc([N+](=O)[O-])c1)C(=O)Nc1nc([N+](=O)[O-])cs1`: the TGI in [9], in [1], in assay [2], in assay [3], in [5] and in [6] was greater than 100 µM throughout. Besides, the TGI in assay [7] is greater than 100 µM.
For `NCC(=O)NC(CO)C(=O)O` (stereo not drawn), the TGI in [8] was greater than 100 µM.
In the case of `COc1ccc2c([nH]c3cc(O)c(C)cc32)c1CC=C(C)C`, the GI50 in assay [1] was 16.3 µM; in [2], 9.22 µM; in [3], 8.63 µM; in assay [6], 12.2 µM. Also, the TGI in [1], in [2], in assay [3], in [4], in [5] and in [6] was greater than 25 µM in each case. This compound registered a TGI in assay [7] greater than 25 µM.
With `O=C(NCc1cccs1)OC1CC2CCC1C2` (stereo not drawn), in assay [8], the TGI was greater than 100 µM.
Turning to `[O]=[W](=[O])([OH])[OH]`, in assay [8], the GI50 was greater than 100 µM and the TGI was greater than 100 µM.
Take `Cc1ccc(C(O)/C(=N/N)c2nc3ccc([N+](=O)[O-])cc3[nH]c2=O)cc1` (stereo not drawn): the TGI in assay [1], in assay [2], in [3], in [4], in [5] and in assay [6] was greater than 100 µM in each case. For the same compound, in [7], the TGI is greater than 100 µM.
For `CC(=O)O[C@]12CCCCC1C1(O)C(O)CCCC[C@H]12` (stereo partly drawn), the TGI in assay [1], in assay [3], in assay [5], in assay [6] and in [7] was greater than 100 µM throughout.
Take `C=C(CN(C)C)C(=O)c1ccc(OC)cc1`: the TGI turned out to be 22.5 µM in assay [8]; 13.7 µM in assay [1]; 2.03 µM in assay [2]; 3.31 µM in assay [3]; 5.1 µM in assay [4]; 8.38 µM in [5]. In addition, the TGI was 7.52 µM in [6] and 7.83 µM in assay [7].
Regarding `CCOc1ccc(N=Nc2c(-c3ccccc3)nn(C(=O)CC(=O)Nc3cccc(C)c3)c2-c2ccccc2)cc1`, the TGI in assay [9], in assay [1], in assay [2], in assay [3], in assay [4] and in [5] was greater than 100 µM each time. In [7], this compound came in with a TGI greater than 100 µM.
`O=C(O)C1CCCCC1C(=O)Nc1nc2ccccc2[nH]1` (stereo not drawn) gave a TGI in assay [8] greater than 100 µM.
With `CO[C@]12CCC(=O)N1C=Cc1c2[nH]c2ccccc12`, the TGI in assay [2], in [3], in assay [5], in assay [6] and in assay [7] was greater than 100 µM each time.
Turning to `C/C=C/C=C\C(=O)C1c2cccc(O)c2C(=O)c2c(O)cc(C)cc21` (stereo not drawn), the TGI came out at 3.94 µM in [1]; 3.67 µM in [2]; 0.57 µM in assay [4]; 1.39 µM in assay [5]; 2.16 µM in assay [6].
With `CC(C)N(C(=O)C12C3C4C5C3C1(C#N)C5C42)C(C)C` (stereo not drawn), the TGI in assay [1], in [2], in [3], in assay [4], in assay [5] and in assay [6] was greater than 100 µM each time. For the same compound, the TGI in [7] is greater than 100 µM.
